{
  "source": "patent US11725015B2",
  "about": "“Macrocyclic compound and uses thereof” (President and Fellows of Harvard College, priority 2017, dated 2023)",
  "key": {"[1]": {"tested_on": "COLO-704 subcutaneous xenograft", "assay": "Antitumor effects in the COLO-704 xenograft model in mice as monotherapy", "assay_type": "in vivo", "description": "A human ovarian cancer cell line COLO-704, which had been cultured in a RPMI-1640 containing 10% FBS, and penicillin-streptomycin, was adjusted to a concentration of 1×10^8 cells/mL with Hanks' Balanced Salt Solution to prepare a cell suspension. The cell suspension was inoculated in a volume of 100 μL into a subcutaneous part of a right flank of nude mice, 5 weeks of ages (CAnN.Cg-Foxn1nu/CrlCrlj, female, Charles River Laboratories Japan Inc.). Nine days after cell inoculation (Day 1), the shortest diameter and the longest diameter of a tumor in each mouse were measured by using an electronic digital caliper (Digimatic™ caliper, Mitutoyo Corporation), so as to calculate the volume of the tumor in accordance with the following calculation formulae: Tumor volume (mm^3)=Longest diameter (mm)×Shortest diameter (mm)×Shortest diameter (mm)/2 Relative tumor volume (RTV)=Tumor volume (day X)/Tumor volume (the first day) Relative body weight (RBW)=Body weight (day X)/Body weight (the first day)\nOn the basis of the volumes of tumors obtained on Day 1, the mice were grouped such that averages of the tumor volumes were substantially equal among the groups. The experiment was conducted on groups each consisting of six mice. The test compound was dissolved in DMSO and a solution was stored in the freezer before use. Immediately before the administration, the stock solution was diluted with saline. The test compound in saline was intravenously once-weekly administered at 20 μg/kg, 60 μg/kg, or 180 μg/kg for 2 weeks (on Day 1 and Day 8)."}, "[2]": {"tested_on": "FaDu subcutaneous xenograft", "assay": "Antitumor effects in FaDu subcutaneous xenograft model in combination with cetuximab in mice, single dose (Test Example 21)", "assay_type": "in vivo", "conditions": "single dose Day 1", "description": "A human squamous cell carcinoma of the head and neck (SCCHN) cell line FaDu, which had been cultured in an RPMI-1640 medium containing 10% FBS, and penicillin-streptomycin, was adjusted to a concentration of 5×10^7 cells/mL with Hanks' Balanced Salt Solution to prepare a cell suspension. The cell suspension was inoculated in a volume of 100 μL into a subcutaneous part of a right flank of athymic mice (CAnN.Cg-Foxnlnu/CrlCrlj, female, 7 weeks old, Charles River Japan Inc.). Ten days after cell inoculation (Day 1), the length and the width of a tumor in each mouse were measured by using an electronic digital caliper (Mitutoyo Corporation), so as to calculate the volume of the tumor in accordance with the following calculation formula: Tumor volume (mm^3)=Longest diameter (mm)×Shortest diameter (mm)×Shortest diameter (mm)/2 Relative tumor volume (RTV)=Tumor volume (day X)/Tumor volume (the first day)\nOn the basis of TV, the mice were randomly grouped (Day 1). Each group was consisted in six mice. Compound (1) was dissolved in DMSO and a solution was stored in the freezer before use."}, "[3]": {"tested_on": "microtubule dynamics in U2OS-EB3-AG osteosarcoma cell line", "assay": "Cell-based microtubule dynamics assay", "description": "A cell-based microtubule (MT) dynamics assay was conducted with the U2OS-EB3-AG osteosarcoma cell line, in which the fusion protein of EB3 (a microtubule plus end binding protein) and Azami-Green (EB3-AG) was stably expressed. U2OS-EB3-AG cells were culture in RPMI-1640 medium containing 10% FBS, and penicillin-streptomycin, at 37° C. in a humidified 5% CO2 atmosphere. The MT dynamics in the live cells can be visualized as the movement of the comet-like structure of EB3-AG. U2OS-EB3-AG cells plated on glass-base culture plates (EZVIEW plate, AGC Techno Glass, Japan) were treated with Compound (1) at the indicated concentration and the microtubule dynamics were monitored by time-lapse imaging using fluorescent microscope with 60-fold magnification oil-immersed objective lens (BZ-X710, KEYENCE, Japan). Higher magnification views of the boxed areas were shown in inlets. When treated with Compound (1) at 0.5 nM (IC50 value for antiproliferative activity in U2OS-EB3-AG cells), the comet-like structures became hard to observe at around 60 minutes after the addition of the compound."}, "[4]": {"tested_on": "EDA-fibronectin", "assay": "Effect on EDA-fibronectin in the FaDu subcutaneous model in mice", "assay_type": "in vivo", "conditions": "Compound (1) 180 μg/kg + CTX 10 mg/kg on Day 1, five days after, compared with control tumors", "description": "A human squamous cell carcinoma of the head and neck (SCCHN) cell line FaDu, which had been cultured in an RPMI-1640 medium containing 10% FBS, and penicillin-streptomycin (culture medium), was adjusted to a concentration of 5×10^7 cells/mL with culture medium to prepare a cell suspension. The cell suspension was inoculated in a volume of 100 μL into a subcutaneous part of a right flank of nude mice, 6 weeks of ages (CAnN.Cg-Foxnlnu/CrlCrlj, female, Charles River Laboratories Japan, Inc.). Ten days after cell inoculation, the mice were grouped such that averages of the tumor volumes were substantially equal among the groups. The experiment was conducted on groups each consisting of 5 mice. Compound (1) was dissolved in DMSO and a solution was stored in the freezer before use. […] Five days after the single administration, tumor samples were collected and fixed with IHC Zinc Fixative (BD Pharmingen) at 4° C. for 24 hr. Paraffin-embedded tissues were sectioned (3 μm), mounted on positively charged slides, and air-dried. Sections were deparaffinized, conditioned and the antigens were retrieved using microwave with 1 mM EDTA at pH 6.0 for Tenascin-C. For EDA-fibronectin, the antigens retrieval procedure was not necessary. […]"}},
  "data": [
    {"smiles": "C=C1C[C@@H]2CC[C@@]34C[C@H]5O[C@H]6[C@@H](O3)[C@H]3O[C@H](CC[C@@H]3O[C@H]6C5O4)CC(=O)O[C@@H]3[C@@H](C)[C@@H]4O[C@@H]5C[C@]6(C[C@@H]7O[C@]8(C[C@H](C)[C@@H]9O[C@H](CN)[C@H](O)C[C@@H]9O8)C[C@H](C)[C@@H]7O6)O[C@@H]5C[C@@H]4O[C@H]3C[C@H]3O[C@@H](CC[C@@H]1O2)C[C@@H](C)C3=C", "note": "[Compound (1)]", "values": [
      {"measurement": "antitumor effect", "setting": "[1]; 60 μg/kg intravenously on Day 1 and Day 8", "result": "tumor growth delay"},
      {"measurement": "antitumor effect", "setting": "[1]; 180 μg/kg intravenously on Day 1 and Day 8", "result": "tumor regression"},
      {"measurement": "eradication of xenograft tumors", "setting": "[1]; 180 μg/kg, on Day 22", "result": "completely eradicated the xenograft tumors in all mice"},
      {"measurement": "antitumor efficacy with CTX", "setting": "[2]; 180 μg/kg + CTX 10 mg/kg", "result": "stronger than that of CTX monotherapy with tumor regression"},
      {"measurement": "antitumor efficacy with CTX", "setting": "[2]; 20 mg/kg + CTX 10 mg/kg", "result": "tended to be stronger than that of CTX monotherapy"},
      {"measurement": "antitumor efficacy with CTX", "setting": "[2]; 60 mg/kg + CTX 10 mg/kg", "result": "stronger than that of CTX monotherapy with tumor regression"},
      {"measurement": "effect on microtubule (MT) dynamics", "setting": "[3]", "result": "had the ability to suppress the MT dynamics"},
      {"measurement": "time at which comet-like structures of EB3-AG became hard to observe", "setting": "[3]; 0.5 nM, after the addition of the compound", "result": "around 60 minutes"},
      {"measurement": "expression level of ED-A fibronectin", "setting": "[4]", "result": "reduced"}
    ]}
  ]
}
